In ChEMBL document CHEMBL1124876, “Organic phosphorus compounds. 5. (4-Benzothiazol-2-ylbenzyl)amidophosphonate as potent calcium antagonistic vasodilators” (J Med Chem, 1990):
Active and inactive are the calls of the source. The rule behind the calls is not given here.

Assays:
[1] = Lethal effect after per os administration in mouse for 7 days; assay type: toxicity; conditions: in vivo, po
Canis familiaris [2] = assay: Coronary vasodilatory activity as increase in coronary flow was determined in dogs after 0.1 mg/kg i.v. administration of the compound; (SE +/- 5); assay type: functional, Canis lupus familiaris; conditions: route intravenous
Canis familiaris [3] = assay: Coronary vasodilatory activity as increase in coronary blood flow was determined in dogs after i.v. administration of the compound; assay type: functional, Canis lupus familiaris, Artery
Canis familiaris [4] = assay: Ability to increase coronary blood flow after intra duodenal administration at 3 mg/kg in dog; (SE +/- 27); assay type: functional, Canis lupus familiaris; conditions: route intraduodenal
Cavia porcellus [5] = organism: Cavia porcellus; assay: Calcium antagonistic activity in isolated guinea pig Tenia coli specimens; (SE +/- 0.08); assay type: functional; conditions: read-out: pA2 (converted)
Cavia porcellus [6] = organism: Cavia porcellus; assay: Calcium antagonistic activity in isolated guinea pig Tenia coli specimens; (SE +/- 0.10); assay type: functional; conditions: read-out: pA2 (converted)
[7] = Partition coefficient (logP); assay type: physicochemical; conditions: octanol/water
Canis familiaris [8] = assay: Coronary vasodilatory activity as increase in coronary flow was determined in dogs after 0.1 mg/kg i.v. administration of the compound; (SE +/- 9); assay type: functional, Canis lupus familiaris; conditions: route intravenous
Canis familiaris [9] = assay: Ability to increase coronary blood flow after intra duodenal administration at 3 mg/kg in dog; (SE +/- 24); assay type: functional, Canis lupus familiaris; conditions: route intraduodenal
Canis familiaris [10] = assay: Coronary vasodilatory activity as increase in coronary flow was determined in dogs after 0.1 mg/kg i.v. administration of the compound; (SE +/- 6.6); assay type: functional, Canis lupus familiaris; conditions: route intravenous
Canis familiaris [11] = assay: Coronary vasodilatory activity as increase in coronary flow was determined in dogs after 0.1 mg/kg i.v. administration of the compound; (SE +/- 7.4); assay type: functional, Canis lupus familiaris; conditions: route intravenous
Canis familiaris [12] = assay: Coronary vasodilatory activity as increase in coronary flow was determined in dogs after 0.1 mg/kg i.v. administration of the compound; assay type: functional, Canis lupus familiaris; conditions: route intravenous
Canis familiaris [13] = assay: Coronary vasodilatory activity as increase in coronary flow was determined in dogs after 0.1 mg/kg i.v. administration of the compound; IA = Inactive; assay type: functional, organism-based; design: dose 0.1 mg/kg; conditions: Canis lupus familiaris; at 0.1 mg/kg
Canis familiaris [14] = assay: Coronary vasodilatory activity as increase in coronary flow was determined in dogs after 0.1 mg/kg i.v. administration of the compound; (SE +/- 27); assay type: functional, Canis lupus familiaris; conditions: route intravenous
Canis familiaris [15] = assay: Ability to increase coronary blood flow after intra duodenal administration at 3 mg/kg in dog; (SE +/- 21); assay type: functional, Canis lupus familiaris; conditions: route intraduodenal
Cavia porcellus [16] = organism: Cavia porcellus; assay: Calcium antagonistic activity in isolated guinea pig Tenia coli specimens; (SE +/- 0.11); assay type: functional; conditions: read-out: pA2 (converted)
Canis familiaris [17] = assay: Coronary vasodilatory activity as increase in coronary flow was determined in dogs after 0.1 mg/kg i.v. administration of the compound; (SE +/- 3.3); assay type: functional, Canis lupus familiaris; conditions: route intravenous
Canis familiaris [18] = assay: Coronary vasodilatory activity as increase in coronary flow was determined in dogs after 0.1 mg/kg i.v. administration of the compound; (SE +/- 13.1); assay type: functional, Canis lupus familiaris; conditions: route intravenous
Canis familiaris [19] = assay: Ability to increase coronary blood flow after intra duodenal administration at 3 mg/kg in dog; (SE +/- 38); assay type: functional, Canis lupus familiaris; conditions: route intraduodenal
Canis familiaris [20] = assay: Coronary vasodilatory activity as increase in coronary flow was determined in dogs after 0.1 mg/kg i.v. administration of the compound; (SE +/- 9.9); assay type: functional, Canis lupus familiaris; conditions: route intravenous
Canis familiaris [21] = assay: Ability to increase coronary blood flow after intra duodenal administration at 3 mg/kg in dog; (SE +/- 23); assay type: functional, Canis lupus familiaris, Blood/Heart; conditions: route intraduodenal
Cavia porcellus [22] = organism: Cavia porcellus; assay: Calcium antagonistic activity in isolated guinea pig Tenia coli specimens; (SE +/- 0.06); assay type: functional; conditions: read-out: pA2 (converted)
Canis familiaris [23] = assay: Coronary vasodilatory activity as increase in coronary flow was determined in dogs after 0.1 mg/kg i.v. administration of the compound; (SE +/- 8.2); assay type: functional, Canis lupus familiaris; conditions: route intravenous
Canis familiaris [24] = assay: Coronary vasodilatory activity as increase in coronary flow was determined in dogs after 0.1 mg/kg i.v. administration of the compound; (SE +/- 22.2); assay type: functional, Canis lupus familiaris; conditions: route intravenous
Cavia porcellus [25] = organism: Cavia porcellus; assay: Calcium antagonistic activity in isolated guinea pig Tenia coli specimens; (SE +/- 0.13); assay type: functional; conditions: read-out: pA2 (converted)
Canis familiaris [26] = assay: Coronary vasodilatory activity as increase in coronary flow was determined in dogs after 0.1 mg/kg i.v. administration of the compound; (SE +/- 0.1); assay type: functional, Canis lupus familiaris; conditions: route intravenous
Canis familiaris [27] = assay: Coronary vasodilatory activity as increase in coronary flow was determined in dogs after 0.1 mg/kg i.v. administration of the compound; (SE +/- 12.9); assay type: functional, Canis lupus familiaris; conditions: route intravenous

Compound: CCOP(=O)(Cc1ccc(-c2nc3ccccc3s2)cc1)OCC [FOSTEDIL]
- LD50 at 168 h [1]: 1190 mg/kg
- Max increase (Canis familiaris [2]): 82.2%
- CBF-ID75 (Canis familiaris [3]): 0.116 mg/kg
- Change in blood flow (Canis familiaris [4]): 92%
- Kb (Cavia porcellus [5]): 61.7 nM

Compound: CCOP(=O)(Cc1ccc(-c2nc3ccccc3s2)cc1)N1CCCC1=O (stereo not drawn)
- Kb (Cavia porcellus [6]): 29.5 nM
- LD50 at 168 h [1]: 2110 mg/kg
- logP [7]: 3
- Max increase (Canis familiaris [8]): 124.1%
- Change in blood flow (Canis familiaris [9]): 104%
- CBF-ID75 (Canis familiaris [3]): 0.0414 mg/kg

Compound: CCOP(=O)(Cc1ccc(-c2nc3ccccc3s2)cc1)N1CCCCC1=S (stereo not drawn)
- Max increase (Canis familiaris [10]): 24.7%

Compound: CCOP(=O)(Cc1ccc(-c2nc3ccccc3s2)cc1)N1CCCC1=S (stereo not drawn)
- Max increase (Canis familiaris [11]): 64.9%

Compound: CCOP(=O)(Cc1ccc(-c2nc3ccccc3s2)cc1)N1CCCCCC1 (stereo not drawn)
- Max increase (Canis familiaris [12]): 49.3%

Compound: CCOP(=O)(Cc1ccc(-c2nc3ccccc3s2)cc1)NCc1ccccc1 (stereo not drawn)
- Max increase (Canis familiaris [13]): inactive

Compound: CCOP(=O)(Cc1ccc(-c2nc3ccccc3s2)cc1)OC (stereo not drawn)
- logP [7]: 3.5

Compound: CCOP(=O)(Cc1ccc(-c2nc3ccccc3s2)cc1)N1CCSC1=O (stereo not drawn)
- LD50 at 168 h [1]: > 1000 mg/kg
- Max increase (Canis familiaris [14]): 155.3%
- CBF-ID75 (Canis familiaris [3]): 0.0504 mg/kg

Compound: CCOP(=O)(Cc1ccc(-c2nc3ccccc3s2)cc1)N1CC=CC1 (stereo not drawn)
- Max increase (Canis familiaris [12]): 80.6%

Compound: CCOP(=O)(Cc1ccc(-c2nc3ccccc3s2)cc1)N1CCCCC1=O (stereo not drawn)
- LD50 at 168 h [1]: > 1000 mg/kg
- Change in blood flow (Canis familiaris [15]): 40%
- Max increase (Canis familiaris [11]): 101.9%
- Kb (Cavia porcellus [16]): 35.5 nM
- CBF-ID75 (Canis familiaris [3]): 0.0552 mg/kg

Compound: CCOP(=O)(Cc1ccc(-c2nc3ccccc3s2)cc1)N1CCOCC1 (stereo not drawn)
- Max increase (Canis familiaris [12]): 69%

Compound: CCOP(=O)(Cc1ccc(-c2nc3ccccc3s2)cc1)NC(C)C (stereo not drawn)
- Max increase (Canis familiaris [12]): 73.2%

Compound: CCOP(=O)(Cc1ccc(-c2nc3ccccc3s2)cc1)N1CCN(Cc2ccc(OC)c(OC)c2OC)CC1.O=C(O)/C=C/C(=O)O (stereo not drawn)
- Max increase (Canis familiaris [17]): 103.5%

Compound: CCOP(=O)(Cc1ccc(-c2nc3ccccc3s2)cc1)N1CCSC1=S (stereo not drawn)
- Max increase (Canis familiaris [11]): 51.8%

Compound: CCNP(=O)(Cc1ccc(-c2nc3ccccc3s2)cc1)OCC (stereo not drawn)
- Max increase (Canis familiaris [12]): 31.2%

Compound: CCOP(=O)(Cc1ccc(-c2nc3ccccc3s2)cc1)N1CCCC1 (stereo not drawn)
- Max increase (Canis familiaris [18]): 101.1%

Compound: CCOP(=O)(Cc1ccc(-c2nc3ccccc3s2)cc1)N1CCN(C)CC1 (stereo not drawn)
- Max increase (Canis familiaris [12]): 49.3%

Compound: CCOP(=O)(Cc1ccc(-c2nc3ccccc3s2)cc1)N1CCCCCC1=O (stereo not drawn)
- Kb (Cavia porcellus [6]): 34.7 nM
- LD50 at 168 h [1]: > 1000 mg/kg
- Max increase (Canis familiaris [8]): 102.8%
- Change in blood flow (Canis familiaris [19]): 69%
- CBF-ID75 (Canis familiaris [3]): 0.055 mg/kg

Compound: CCOP(=O)(Cc1ccc(-c2nc3ccccc3s2)cc1)N1CCCCCCC1=O (stereo not drawn)
- Max increase (Canis familiaris [20]): 70.7%

Compound: Cc1ccc(-c2nc3ccccc3s2)cc1
- logP [7]: 3.7

Compound: CCOP(=O)(Cc1ccc(-c2nc3ccccc3s2)cc1)NCCCl (stereo not drawn)
- Max increase (Canis familiaris [12]): 31.2%

Compound: COc1ccc([C@@H]2Sc3ccccc3N(CCN(C)C)C(=O)[C@@H]2OC(C)=O)cc1.Cl [DILTIAZEM HYDROCHLORIDE]
- LD50 at 168 h [1]: 508 mg/kg
- Change in blood flow (Canis familiaris [21]): 52%
- CBF-ID75 (Canis familiaris [3]): 0.0771 mg/kg
- Kb (Cavia porcellus [22]): 50.1 nM

Compound: CCOP(=O)(Cc1ccc(-c2nc3ccccc3s2)cc1)N1CCCCC1 (stereo not drawn)
- Max increase (Canis familiaris [23]): 81.3%

Compound: CCOP(=O)(Cc1ccc(-c2nc3ccccc3s2)cc1)N1CCOC1=O (stereo not drawn)
- Max increase (Canis familiaris [24]): 141.4%
- LD50 at 168 h [1]: 671 mg/kg
- Kb (Cavia porcellus [25]): 25.7 nM
- CBF-ID75 (Canis familiaris [3]): 0.0773 mg/kg

Compound: CCOP(=O)(Cc1ccc(-c2nc3ccccc3s2)cc1)N(CC)CC (stereo not drawn)
- Max increase (Canis familiaris [26]): 79.7%

Compound: CCOP(=O)(Cc1ccc(-c2nc3ccccc3s2)cc1)NC1CC1 (stereo not drawn)
- Max increase (Canis familiaris [12]): 41.1%

Compound: CCOP(=O)(Cc1ccc(-c2nc3ccccc3s2)cc1)N1CCN(CC)C(=O)C1=O (stereo not drawn)
- Max increase (Canis familiaris [27]): 51.8%

Compound: CCOC(=O)Cc1ccc(-c2nc3ccccc3s2)cc1
- logP [7]: 3.2
